Data as given in the supplement of paper PMC5908809.

What was measured:
[1] = system: normal NK cells expanded with K562-aAPC; assay: percent inhibition of viability; higher = more inhibition; settings: 72 h, IL-2 2.5 ng/mL
Procedure: (§1)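 Drug sensitivity and resistance testing on K562-aAPC-expanded normal NK cells: 5 concentrations (10-fold steps over a 10,000-fold range), 72 h at 37 °C, viability by CellTiter-Glo normalised to DMSO and benzethonium chloride controls; DSS from the fitted curve.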

DERL-7 (IL-2 2.5 ng/mL) [2] = assay: as above; settings: 72 h
IMC-1 (IL-2 20 ng/mL) [3] = assay: as above; settings: 72 h
KAI3 (IL-2 2.5 ng/mL) [4] = assay: as above; settings: 72 h
KHYG-1 (IL-2 2.5 ng/mL) [5] = assay: as above; settings: 72 h
NK-92 (IL-2 2.5 ng/mL) [6] = assay: as above; settings: 72 h
NK-YS (IL-2 2.5 ng/mL) [7] = assay: as above; settings: 72 h
NKL (IL-2 2.5 ng/mL) [8] = assay: as above; settings: 72 h
SNK-6 (IL-2 2.5 ng/mL) [9] = assay: as above; settings: 72 h
YT (IL-2 2.5 ng/mL) [10] = assay: as above; settings: 72 h
[11] = system: normal primary NK cells, pool 1 (3 donors) (IL-2 2.5 ng/mL); assay: as above; settings: 72 h
[12] = system: normal primary NK cells, pool 1 (3 donors), resting (IL-2 0 ng/mL); assay: as above; settings: 72 h
[13] = system: normal primary NK cells, pool 2 (3 donors) (IL-2 2.5 ng/mL); assay: as above; settings: 72 h
[14] = system: normal primary NK cells, pool 3 (3 donors) (IL-2 2.5 ng/mL); assay: as above; settings: 72 h
[15] = system: normal NK cells expanded with K562-aAPC; assay: drug sensitivity score (DSS) (DSS units); higher = more sensitive; extreme values may be limits of the assay; settings: 72 h; IL-2 2.5 ng/mL
Procedure: as §1

DERL-7 (IL-2 2.5 ng/mL) [16] = assay: as above; settings: 72 h
IMC-1 (IL-2 20 ng/mL) [17] = assay: as above; settings: 72 h
KAI3 (IL-2 2.5 ng/mL) [18] = assay: as above; settings: 72 h
KHYG-1 (IL-2 2.5 ng/mL) [19] = assay: as above; settings: 72 h
NK-92 (IL-2 2.5 ng/mL) [20] = assay: as above; settings: 72 h
NK-YS (IL-2 2.5 ng/mL) [21] = assay: as above; settings: 72 h
NKL (IL-2 2.5 ng/mL) [22] = assay: as above; settings: 72 h
SNK-6 (IL-2 2.5 ng/mL) [23] = assay: as above; settings: 72 h
YT (IL-2 2.5 ng/mL) [24] = assay: as above; settings: 72 h
[25] = system: normal primary NK cells, pool 1 (3 donors) (IL-2 2.5 ng/mL); assay: as above; settings: 72 h
[26] = system: normal primary NK cells, pool 1 (3 donors), resting (IL-2 0 ng/mL); assay: as above; settings: 72 h
[27] = system: normal primary NK cells, pool 2 (3 donors) (IL-2 2.5 ng/mL); assay: as above; settings: 72 h
[28] = system: normal primary NK cells, pool 3 (3 donors) (IL-2 2.5 ng/mL); assay: as above; settings: 72 h

NC(=O)Nc1cc(-c2cccc(F)c2)sc1C(=O)N[C@H]1CCCNC1 [AZD7762] (max concentration tested 1000 nM)
percent inhibition of viability [%]
Settings	0.1 nM	1 nM	10 nM	100 nM	1000 nM
DERL-7 (IL-2 2.5 ng/mL) [2]	0.34	1.83	-2.38	40.2	96.8
IMC-1 (IL-2 20 ng/mL) [3]	-6.23	-1.75	-2.17	-7.04	99
KAI3 (IL-2 2.5 ng/mL) [4]	3.25	1.46	16.1	87.4	101
KHYG-1 (IL-2 2.5 ng/mL) [5]	-7.54	-7.13	3.29	100	106
NK-92 (IL-2 2.5 ng/mL) [6]	-12.3	2.34	-2.59	33.4	104
NK-YS (IL-2 2.5 ng/mL) [7]	-4.78	-5.3	-1.14	32.8	98.5
NKL (IL-2 2.5 ng/mL) [8]	-9.43	-12.1	12	71.8	94.4
SNK-6 (IL-2 2.5 ng/mL) [9]	1.39	-7.11	6.7	38.1	98.3
YT (IL-2 2.5 ng/mL) [10]	-5.67	-1.28	2.8	28.1	99.1
[1]	-1.82	-2.38	-5.7	40.7	73.3
[11]	-5.93	12.7	4.94	7.28	38.7
[12]	-1.65	27.9	17.6	7.65	15
[13]	-6.25	11.4	-7.48	-6.09	39.8
[14]	-4.39	6.88	-1.78	-16.7	27.9

Settings	drug sensitivity score
DERL-7 (IL-2 2.5 ng/mL) [16]	10.7
IMC-1 (IL-2 20 ng/mL) [17]	4.99
KAI3 (IL-2 2.5 ng/mL) [18]	18
KHYG-1 (IL-2 2.5 ng/mL) [19]	18.4
NK-92 (IL-2 2.5 ng/mL) [20]	10.2
NK-YS (IL-2 2.5 ng/mL) [21]	10.1
NKL (IL-2 2.5 ng/mL) [22]	14.9
SNK-6 (IL-2 2.5 ng/mL) [23]	10
YT (IL-2 2.5 ng/mL) [24]	9.64
[15]	9.03
[25]	3.1
[26]	2.58
[27]	1.59
[28]	0.69

Cc1cc2c(F)c(Oc3ncnn4cc(OC[C@@H](C)O)c(C)c34)ccc2[nH]1 [Brivanib] (max concentration tested 1000 nM)
percent inhibition of viability [%]
Settings	0.1 nM	1 nM	10 nM	100 nM	1000 nM
DERL-7 (IL-2 2.5 ng/mL) [2]	0.94	7.48	-2.36	3.07	-1.62
IMC-1 (IL-2 20 ng/mL) [3]	-8.23	-2.37	-10.1	-3.91	-8.67
KAI3 (IL-2 2.5 ng/mL) [4]	-2.86	1.99	-5.53	-0.99	-2.38
KHYG-1 (IL-2 2.5 ng/mL) [5]	-4.66	-2.28	-3.77	-3.68	-5.25
NK-92 (IL-2 2.5 ng/mL) [6]	-10.1	-9.6	-3.98	-10.2	-5.2
NK-YS (IL-2 2.5 ng/mL) [7]	-2	-5.08	-6.17	0.88	13.4
NKL (IL-2 2.5 ng/mL) [8]	-11.2	-9.83	-21.6	-12.1	-10.2
SNK-6 (IL-2 2.5 ng/mL) [9]	5.84	-0.07	3.56	8.94	4.87
YT (IL-2 2.5 ng/mL) [10]	-2.1	-2.63	-1.47	-0.95	-3.56
[1]	0.76	-1.44	1.84	-3.64	-2.22
[11]	-8.41	-6.09	4.52	-3.63	-4.56
[12]	-11.7	-6.81	7.63	-9.3	-5.72
[13]	-6.73	-10	-9.37	-10.3	-8.25
[14]	-9.42	-10.1	-12.4	-11	-7.07

Settings	drug sensitivity score
DERL-7 (IL-2 2.5 ng/mL) [16]	0
IMC-1 (IL-2 20 ng/mL) [17]	0
KAI3 (IL-2 2.5 ng/mL) [18]	0
KHYG-1 (IL-2 2.5 ng/mL) [19]	0
NK-92 (IL-2 2.5 ng/mL) [20]	0
NK-YS (IL-2 2.5 ng/mL) [21]	0.18
NKL (IL-2 2.5 ng/mL) [22]	0
SNK-6 (IL-2 2.5 ng/mL) [23]	0
YT (IL-2 2.5 ng/mL) [24]	0
[15]	0
[25]	0
[26]	0
[27]	0
[28]	0

CCN(CC)CCNC(=O)c1c(C)[nH]c(/C=C2\C(=O)Nc3ccc(F)cc32)c1C [Sunitinib] (max concentration tested 1000 nM)
percent inhibition of viability [%]
Settings	0.1 nM	1 nM	10 nM	100 nM	1000 nM
DERL-7 (IL-2 2.5 ng/mL) [2]	-3.26	-7.9	-4.27	2.22	8.72
IMC-1 (IL-2 20 ng/mL) [3]	-2.84	-1.04	-2.36	-9.74	-11.7
KAI3 (IL-2 2.5 ng/mL) [4]	-6.44	-3.5	-1.64	-2.65	13.1
KHYG-1 (IL-2 2.5 ng/mL) [5]	-2.13	-0.89	-1.78	-2.5	-1.47
NK-92 (IL-2 2.5 ng/mL) [6]	-1.8	-5.15	-7.66	-13.8	-16.3
NK-YS (IL-2 2.5 ng/mL) [7]	-7.84	-1.57	-0.53	-5.09	20
NKL (IL-2 2.5 ng/mL) [8]	-10.3	-18.8	-13.7	-21.1	-19
SNK-6 (IL-2 2.5 ng/mL) [9]	5.7	4.75	3.71	-18.1	-44.5
YT (IL-2 2.5 ng/mL) [10]	-1.95	0.38	0.07	-2.92	-1.42
[1]	-1.15	-8.6	-7.99	-3.78	8.28
[11]	-9.12	-5.49	0.84	2.57	11.7
[12]	-1.26	-12.4	6.63	10.2	8.42
[13]	-6.76	-0.63	-6.25	-4.61	11.7
[14]	-5.22	-2.41	-6.25	-3.39	0.3

Settings	drug sensitivity score
DERL-7 (IL-2 2.5 ng/mL) [16]	0
IMC-1 (IL-2 20 ng/mL) [17]	0
KAI3 (IL-2 2.5 ng/mL) [18]	0.06
KHYG-1 (IL-2 2.5 ng/mL) [19]	0
NK-92 (IL-2 2.5 ng/mL) [20]	0
NK-YS (IL-2 2.5 ng/mL) [21]	0.4
NKL (IL-2 2.5 ng/mL) [22]	0
SNK-6 (IL-2 2.5 ng/mL) [23]	0
YT (IL-2 2.5 ng/mL) [24]	0
[15]	0
[25]	0.13
[26]	0.08
[27]	0
[28]	0
